From patent publication US8193193B2, “Agent for prevention or treatment of glaucoma” (Kowa Co., Ltd., priority 2005, dated 2012)

Assays:
IOP [1] = assay: Ocular hypotensive effect after instillation, alone or in combination, in rabbits (change from initial IOP); type: in vivo, Japanese white rabbits; details: male JW rabbits, brinzolamide 1%, 50 μL; for persistence of ocular hypotensive action (FIG. 1): after 3 or 4 hours from instillation, 0.5% solution; for persistence of ocular hypotensive action (FIG. 2): after 4 and also 5 hours from instillation, 1.5% solution
Experimental: To examine usefulness of combination use of a Rho kinase inhibitor and a carbonic anhydrase inhibitor, the ocular hypotensive effects were compared by administering either of these drugs alone or both in combination to laboratory animals. (S)-(−)-1-(4-fluoro-5-isoquinolinesulfonyl)-2-methyl-1,4-homopiperazine-hydrochloride dihydrate was dissolved in physiological saline, and the solution was neutralized (pH 6.0) by adding sodium dihydrogenphosphate and sodium hydroxide to prepare a (S)-(−)-1-(4-fluoro-5-isoquinolinesulfonyl)-2-methyl-1,4-homopiperazine solution at a desired concentration. The commercially available “Eril® S Injection” (Asahi Kasei Pharma) was used as it was. The commercially available “Azopt® Ophthalmic Suspension 1%” (Alcon Japan Ltd.) was used as it was. The ocular hypotensive effect was examined after the combination use of (S)-(−)-1-(4-fluoro-5-isoquinolinesulfonyl)-2-methyl-1,4-homopiperazine and brinzolamide. As a control, the ocular hypotensive effect was also examined after the use of brinzolamide alone or (S)-(−)-1-(4-fluoro-5-isoquinolinesulfonyl)-2-methyl-1,4-homopiperazine alone. Similarly, the ocular hypotensive effect was examined after the combination use of hexahydro-1-(5-isoquinolinesulfonyl)-1H-1,4-diazepine and brinzolamide. As a control, the ocular hypotensive effect was also examined after the use of brinzolamide alone or hexahydro-1-(5-isoquinolinesulfonyl)-1H-1,4-diazepine alone. (S)-(−)-1-(4-fluoro-5-isoquinolinesulfonyl)-2-methyl-1,4-homopiperazine solution: 0.5% solution (instillation volume, 50 μL) Hexahydro-1-(5-isoquinolinesulfonyl)-1H-1,4-diazepine solution: fasudil hydrochloride hydrate injection (1.5% solution [trade name: Eril® S Injection]; instillation volume, 50 μL) Brinzolamide solution: brinzolamide ophthalmic solution ([trade name: Azopt® Ophthalmic Suspension 1%]; instillation volume, 50 μL) Laboratory animals: Japanese white rabbits (male JW rabbits, 5 animals per group) 1). One drop of 0.4% oxybuprocaine hydrochloride ophthalmic solution (trade name: Benoxil Ophthalmic Solution 0.4%) was instilled in both eyes of the laboratory animals for local anesthesia (only data for the instilled eyes are shown). 2) IOP was measured immediately before administration of the test compound solution as the initial IOP. 3) The brinzolamide solution was instilled in one eye of the laboratory animals, followed by the instillation of (S)-(−)-1-(4-fluoro-5-isoquinolinesulfonyl)-2-methyl-1,4-homopiperazine solution in the same eye. 4) At 1 hour, 2 hours, 3 hours, 4 hours, and 5 hours after the instillation of both drugs, one drop each of 0.4% oxybuprocaine hydrochloride ophthalmic solution was instilled in both eyes for local anesthesia, and IOP was measured. […]

IOP [2] = details: rabbits with normal IOP, cited from earlier work

Compound | persistence of ocular hypotensive action (FIG. 1) (IOP [1]) | persistence of ocular hypotensive action (FIG. 2) (IOP [1]) | time after instillation from which IOP is lowered (IOP [2]) | maximum IOP reduction (IOP [2]; instillation, concentration of 0.1%)
C[C@H]1CNCCCN1S(=O)(=O)c1cccc2cncc(F)c12 [(S)-(−)-1-(4-fluoro-5-isoquinolinesulfonyl)-2-methyl-1,4-homopiperazine] | ocular hypotensive effect disappeared | – | – | –
CCN[C@H]1CN(CCCOC)S(=O)(=O)c2sc(S(N)(=O)=O)cc21 [brinzolamide] | ocular hypotensive effect disappeared | ocular hypotensive effect disappeared | – | –
C[C@@H](N)c1ccc(C(=O)Nc2ccnc3[nH]ccc23)cc1 [Y-39983, 4-[(1R)-1-aminoethyl]-N-1H-pyrrolo[2,3-b]pyridin-4-ylbenzamide] | – | – | 1 h | 15 mmHg
O=S(=O)(c1cccc2cnccc12)N1CCCNCC1 [hexahydro-1-(5-isoquinolinesulfonyl)-1H-1,4-diazepine] | – | ocular hypotensive effect disappeared | – | –
